Reference: article PMC11882969 (Nature Communications, 2025)
“And” between values parts separate entries of the source, which are not always exact repeats. Identical values can stand only once. Like-named read-outs stand apart in the source and are kept apart here.

What was measured:
CB1 (rCB1) [1] = biological target: T1, CB1 (rCB1) (Rattus norvegicus, UniProt P20272); test: Single-point radioligand displacement screen; type: binding; details: 10 µM, 1 µM or 300 nM by cell colour (not visible)
T1 sequence (P20272 whole entry): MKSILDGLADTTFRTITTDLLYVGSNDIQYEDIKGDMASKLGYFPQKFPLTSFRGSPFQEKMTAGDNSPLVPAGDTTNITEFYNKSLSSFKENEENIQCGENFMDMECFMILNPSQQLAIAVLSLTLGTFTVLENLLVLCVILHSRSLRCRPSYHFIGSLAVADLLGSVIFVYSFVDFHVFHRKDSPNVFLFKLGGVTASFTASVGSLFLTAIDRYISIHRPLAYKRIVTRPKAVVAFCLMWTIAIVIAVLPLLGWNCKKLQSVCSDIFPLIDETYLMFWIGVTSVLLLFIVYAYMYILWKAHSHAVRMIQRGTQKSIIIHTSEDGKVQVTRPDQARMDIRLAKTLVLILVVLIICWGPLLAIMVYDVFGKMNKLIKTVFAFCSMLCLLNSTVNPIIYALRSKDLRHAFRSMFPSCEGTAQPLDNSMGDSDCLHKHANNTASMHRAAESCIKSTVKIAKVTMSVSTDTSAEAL

hCB1 = hCB1 (Homo sapiens, UniProt P21554); test: bioSensAll ebBRET signaling profiling, hCB1; type: cell-based; set-up: host or cells: HEK293SL cells, transient PEI transfection; details: for Gi1 hCB1 response: Gi1 biosensor; for Gi1 hCB1 / GoB hCB1: single replicate values, FigS6a; for Emax [95% CI]: normalized to CP-55,940; for EC50: read-out: EC50 [95% CI]
Chain of hCB1 (P21554 whole entry): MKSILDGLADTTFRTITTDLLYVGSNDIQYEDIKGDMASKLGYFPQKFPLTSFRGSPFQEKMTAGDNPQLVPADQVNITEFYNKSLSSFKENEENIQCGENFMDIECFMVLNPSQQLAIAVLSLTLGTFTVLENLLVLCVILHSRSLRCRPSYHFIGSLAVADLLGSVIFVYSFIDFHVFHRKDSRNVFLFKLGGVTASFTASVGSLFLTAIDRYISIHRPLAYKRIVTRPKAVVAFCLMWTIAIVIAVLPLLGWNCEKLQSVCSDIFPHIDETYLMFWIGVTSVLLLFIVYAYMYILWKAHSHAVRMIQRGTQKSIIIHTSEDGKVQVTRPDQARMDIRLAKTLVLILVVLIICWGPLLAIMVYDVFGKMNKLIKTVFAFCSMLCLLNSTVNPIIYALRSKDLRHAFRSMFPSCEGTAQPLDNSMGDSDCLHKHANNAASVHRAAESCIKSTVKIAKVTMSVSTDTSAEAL

CB1 (rCB1) [2] = biological target: T1, CB1 (rCB1); test: Radioligand competition binding, [3H]-CP-55,940, rat brain membranes
hCB2 = hCB2 (Homo sapiens, UniProt P34972); test: Tango β-arrestin-2 recruitment, HTLA cells, CB2R; type: cell-based; set-up: expressed in transfected cells; host or cells: HEK293 cells stably expressing human CB2R (Laboratory of Ken Mackie); details: hCB2
Chain of hCB2 (P34972 whole entry): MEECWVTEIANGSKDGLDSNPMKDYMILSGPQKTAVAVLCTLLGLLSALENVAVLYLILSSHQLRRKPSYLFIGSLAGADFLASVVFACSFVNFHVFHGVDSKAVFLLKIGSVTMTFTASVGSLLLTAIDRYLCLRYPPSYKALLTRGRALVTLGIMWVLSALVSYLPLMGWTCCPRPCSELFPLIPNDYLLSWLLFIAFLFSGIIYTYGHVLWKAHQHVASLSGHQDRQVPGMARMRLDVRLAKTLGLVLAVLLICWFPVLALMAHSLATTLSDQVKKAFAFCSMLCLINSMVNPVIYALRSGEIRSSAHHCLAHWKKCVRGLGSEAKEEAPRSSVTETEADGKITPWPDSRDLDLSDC

**Q.** Which results are given for `COC(=O)[C@@H]1[C@@H]2CCC[C@@H]2CN1C(=O)c1cc(C)n(-c2cccc(Cl)c2)n1` (racemic) [‘10010]?
**A.** % 1H-CP-55,940 displacement (mean) from single point screen (CB1 (rCB1) [1]): 33.86%; Gi1 hCB1 response (hCB1; Log [Compound] (M) -4.22186): 123.556; Gi1 hCB1 response (hCB1; Log [Compound] (M) -4.63927): 104.286; Gi1 hCB1 response (hCB1; Log [Compound] (M) -5.05788): 90.0738; Gi1 hCB1 response (hCB1; Log [Compound] (M) -5.47381): 84.2546; Gi1 hCB1 response (hCB1; Log [Compound] (M) -5.89285): 64.3799; Gi1 hCB1 response (hCB1; Log [Compound] (M) -6.31878): 42.6475; Gi1 hCB1 response (hCB1; Log [Compound] (M) -6.72585): 30.3601; Gi1 hCB1 response (hCB1; Log [Compound] (M) -7.14267): 11.5597; Gi1 hCB1 response (hCB1; Log [Compound] (M) -7.55284): 0.9285; Gi1 hCB1 response (hCB1; Log [Compound] (M) -8): 10.9106; Gi1 hCB1 response (hCB1; Log [Compound] (M) -8.22186): -8.695; Gi1 hCB1 response (hCB1; Log [Compound] (M) -8.39794): 0.6152; Gi1 hCB1 response (hCB1; Log [Compound] (M) -8.68787): -2.362; Gi1 hCB1 response (hCB1; Log [Compound] (M) -9.61989): -10.5755; Gi1 hCB1 response (hCB1; Log [Compound] (M) -10.0969): -9.255; Gi1 hCB1 response (hCB1; Log [Compound] (M) -10.5529): -7.5988; Gi1 hCB1 response (hCB1; Log [Compound] (M) -11.0177): -15.9247; Gi1 hCB1 response (hCB1; Log [Compound] (M) -11.4949): -7.532; Gi1 hCB1 response (hCB1; Log [Compound] (M) -11.9208): -15.2309; Gi1 hCB1 response (hCB1; Log [Compound] (M) -12.3979): -21.4305; Gi1 hCB1 response (hCB1; Log [Compound] (M) -12.8861): 1.8014; Gi1 hCB1 response (hCB1; Log [Compound] (M) -13, individual replicate values): -0.8396 and -0.9068; Gi1 hCB1 (hCB1; Log [Compound] (M) -4.22186): 75.9694; GoB hCB1 (hCB1; Log [Compound] (M) -4.22186): 69.5491; Gi1 hCB1 (hCB1; Log [Compound] (M) -4.63927): 67.922; GoB hCB1 (hCB1; Log [Compound] (M) -4.63927): 64.6397; Gi1 hCB1 (hCB1; Log [Compound] (M) -5.05788): 66.8428; GoB hCB1 (hCB1; Log [Compound] (M) -5.05788): 63.4708; Gi1 hCB1 (hCB1; Log [Compound] (M) -5.47381): 60.337; GoB hCB1 (hCB1; Log [Compound] (M) -5.47381): 61.9062; Gi1 hCB1 (hCB1; Log [Compound] (M) -5.89285): 45.2596; GoB hCB1 (hCB1; Log [Compound] (M) -5.89285): 36.262; Gi1 hCB1 (hCB1; Log [Compound] (M) -6.31878): 29.1955; GoB hCB1 (hCB1; Log [Compound] (M) -6.31878): 27.8098; Gi1 hCB1 (hCB1; Log [Compound] (M) -6.72585): 16.0606; GoB hCB1 (hCB1; Log [Compound] (M) -6.72585): 11.4989; Gi1 hCB1 (hCB1; Log [Compound] (M) -7.14267): 6.117; GoB hCB1 (hCB1; Log [Compound] (M) -7.14267): 3.514; Gi1 hCB1 (hCB1; Log [Compound] (M) -7.55284): 3.804; GoB hCB1 (hCB1; Log [Compound] (M) -7.55284): 2.9568; Gi1 hCB1 (hCB1; Log [Compound] (M) -8): 3.373; GoB hCB1 (hCB1; Log [Compound] (M) -8): 0.9427; Gi1 hCB1 (hCB1; Log [Compound] (M) -8.22186): 2.679; GoB hCB1 (hCB1; Log [Compound] (M) -8.22186): -4.812; Gi1 hCB1 (hCB1; Log [Compound] (M) -8.39794): 2.664; GoB hCB1 (hCB1; Log [Compound] (M) -8.39794): -1.197; Gi1 hCB1 (hCB1; Log [Compound] (M) -8.68787): 1.0911; GoB hCB1 (hCB1; Log [Compound] (M) -8.68787): -4.812; Gi1 hCB1 (hCB1; Log [Compound] (M) -9.15521): 1.8; GoB hCB1 (hCB1; Log [Compound] (M) -9.15521): -5.028; Gi1 hCB1 (hCB1; Log [Compound] (M) -9.61989): 0.8444; GoB hCB1 (hCB1; Log [Compound] (M) -9.61989): -4.38; Gi1 hCB1 (hCB1; Log [Compound] (M) -10.0969): 1.662; GoB hCB1 (hCB1; Log [Compound] (M) -10.0969): -4.057; Gi1 hCB1 (hCB1; Log [Compound] (M) -10.5529): 2.648; GoB hCB1 (hCB1; Log [Compound] (M) -10.5529): 1.212; Gi1 hCB1 (hCB1; Log [Compound] (M) -11.0177): 0.9524; GoB hCB1 (hCB1; Log [Compound] (M) -11.0177): -2.384; Gi1 hCB1 (hCB1; Log [Compound] (M) -11.4949): 2.417; GoB hCB1 (hCB1; Log [Compound] (M) -11.4949): -4.326; Gi1 hCB1 (hCB1; Log [Compound] (M) -11.9208): 1.261; GoB hCB1 (hCB1; Log [Compound] (M) -11.9208): -0.06441; Gi1 hCB1 (hCB1; Log [Compound] (M) -12.3979): 1.908; GoB hCB1 (hCB1; Log [Compound] (M) -12.3979): 2.4173; Gi1 hCB1 (hCB1; Log [Compound] (M) -12.8861): 1.322; GoB hCB1 (hCB1; Log [Compound] (M) -12.8861): 1.59; Gi1 hCB1 (hCB1; Log [Compound] (M) -13): 2.232 and 1.538; GoB hCB1 (hCB1; Log [Compound] (M) -13): 0.8707 and 1.266; pEC50 [95% CI] (hCB1; hCB1 Gi1): 6.1 [6.0 – 6.1]; Emax [95% CI] (hCB1; hCB1 Gi1): 74 [70 – 74]; pEC50 [95% CI] (hCB1; hCB1 GoB): 6.1 [6.0 – 6.2]; Emax [95% CI] (hCB1; hCB1 GoB): 71 [67 – 75]; pEC50 [95% CI] (hCB1; hCB1 Gz): 5.9 [5.4 – 6.3]; Emax [95% CI] (hCB1; hCB1 Gz): 144 [113 –175]; EC50 (hCB1; hCB1 Gi1): 814 nM; EC50 (hCB1; hCB1 GoB): 801 nM; EC50 (hCB1; hCB1 Gz): 1400 nM; pKi [95% CI] (CB1 (rCB1) [2]; rCB1): 5.9 [5.8 – 6.0]; Ki (CB1 (rCB1) [2]; read-out: Ki [95% CI], rCB1, [3H]-CP-55,940): 1200 nM; Tango ß-arrestin recruitment Emax (hCB2): 18% [17 – 19]; Tango ß-arrestin recruitment pEC50 (hCB2): 6.3 [6.2 – 6.3]; EC50 (hCB2; read-out: Tango ß-arrestin recruitment EC50): 556 nM
